The results in this text go back to patent publication US7342000B2, “Semisynthetic macrolide antibiotics of the azalide series” (GlaxoSmithKline istrazivacki center Zagreb, priority 2002, dated 2008).

Holding throughout (assay): MIC by broth dilution (NCCLS M7-A2)
Assay type in all cases: cell-based
Settings in all cases: 90% growth inhibition

One assay has as its system E. coli ATCC 25922. The source says:
(§1) MIC levels for all compound were determinated on panel of susceptible, and resistant Gram positive bacterial strains (S. aureus, S. pneumoniae and S. pyogenes) and on Gram negative strains (E. coli, H. influenzae, […], M. catarrhalis).

Another assay concerns E. faecalis ATCC 29212.
Excerpt: as §1

The next assay relates to H. influenzae ATCC 49247.
Excerpt: as §1

Assay [1] deals with M. catarrhalis ATCC 23246.
Excerpt: as §1

The test system of another assay is S. aureus ATCC 13709.
Excerpt: as §1

A further assay concerns S. pneumoniae.
Excerpt: as §1

The next assay relates to S. pyogenes M.
Excerpt: as §1

The subject of the next assay is S. pyogenes iMLS.
Excerpt: as §1

The subject of the next assay is S. pyogenes.
Excerpt: as §1

For `CC[C@H]1OC(=O)[C@H](C)[C@@H](O[C@H]2C[C@@](C)(OC)[C@@H](O)[C@H](C)O2)[C@H](C)[C@@H](O[C@@H]2O[C@H](C)C[C@H](N(C)C)[C@H]2O)[C@](C)(O)C[C@@H](C)CN(CCCNC(=O)NCc2ccccc2)[C@H](C)[C@@H](O)[C@]1(C)O` [Example 3, 9-Deoxo-9-dihydro-9a-N-(N′-benzylcarbamoyl-γ-aminopropyl)-9a-aza-9a-homoerithromycin A], the MIK in the assay on E. coli ATCC 25922 was 16 µg/mL; in the assay with E. faecalis ATCC 29212, 16 µg/mL; with H. influenzae ATCC 49247, 2 µg/mL; in assay [1], 1 µg/mL; in the assay with S. aureus ATCC 13709, 0.5 µg/mL; in the assay on S. pneumoniae, “≦0.125 μg/ml”. For the same compound, the MIK in the assay on S. pyogenes M was 8 µg/mL; with S. pyogenes iMLS, 4 µg/mL; in the assay with S. pyogenes, “≦0.125 μg/ml”.
For `CCOC(=O)CNC(=O)NCCCN1CC(C)CC(C)(O)C(OC2OC(C)CC(N(C)C)C2O)C(C)C(OC2CC(C)(OC)C(O)C(C)O2)C(C)C(=O)OC(CC)C(C)(O)C(O)C1C` (stereo not drawn) [Example 9, 9-Deoxo-9-dihydro-9a-N-(N′-ethoxycarbonylmethylcarbamoyl-γ-aminopropyl)-9a-aza-9a-homoerithromycin A], the MIK in the assay on E. coli ATCC 25922 was above 64 µg/mL; in the assay on E. faecalis ATCC 29212, above 64 µg/mL; with H. influenzae ATCC 49247, 32 µg/mL; in assay [1], 4 µg/mL; in the assay on S. aureus ATCC 13709 it was 8 µg/mL; with S. pneumoniae, “≦0.125 μg/ml”. The MIK in the assay with S. pyogenes M is 64 µg/mL; with S. pyogenes iMLS, 16 µg/mL; in the assay with S. pyogenes it was “≦0.125 μg/ml”.
Consider `CC[C@H]1OC(=O)[C@H](C)[C@@H](O[C@H]2C[C@@](C)(OC)[C@@H](O)[C@H](C)O2)[C@H](C)[C@@H](O[C@@H]2O[C@H](C)C[C@H](N(C)C)[C@H]2O)[C@](C)(O)C[C@@H](C)CN(CCCNC(=O)N(CCC#N)CCCc2ccccc2)[C@H](C)[C@@H](O)[C@]1(C)O` [Example 33, 9-Deoxo-9-dihydro-9a-N-[N′-(β-cyanoethyl)-N′-(3-phenylpropyl)carbamoyl-γ-aminopropyl]-9a-aza-9a-homoerithromycin A], for which the MIK with E. coli ATCC 25922 was 16 µg/mL; with E. faecalis ATCC 29212 it was 16 µg/mL; with H. influenzae ATCC 49247, 2 µg/mL; in assay [1], 1 µg/mL; in the assay on S. aureus ATCC 13709, 1 µg/mL; with S. pneumoniae, “≦0.125 μg/ml”. Also, the values for the MIK with S. pyogenes M, in the assay with S. pyogenes iMLS and with S. pyogenes were 8 µg/mL, 4 µg/mL and “≦0.125 μg/ml”, respectively.
On to `CC[C@H]1OC(=O)[C@H](C)[C@@H](O[C@H]2C[C@@](C)(OC)[C@@H](O)[C@H](C)O2)[C@H](C)[C@@H](O[C@@H]2O[C@H](C)C[C@H](N(C)C)[C@H]2O)[C@](C)(O)C[C@@H](C)CN(CCCNC(=S)NCc2ccccc2)[C@H](C)[C@@H](O)[C@]1(C)O` [Example 4, 9-Deoxo-9-dihydro-9a-N-(N′-benzylthiocarbamoyl-γ-aminopropyl)-9a-aza-9a-homoerithromycin A], for which the MIK with E. coli ATCC 25922 was 16 µg/mL; in the assay with E. faecalis ATCC 29212, 8 µg/mL; in the assay with H. influenzae ATCC 49247, 2 µg/mL; in [1] it was 1 µg/mL; with S. aureus ATCC 13709, 2 µg/mL; with S. pneumoniae it was “≦0.125 μg/ml”. The MIK is 4 µg/mL with S. pyogenes M, 2 µg/mL with S. pyogenes iMLS and “≦0.125 μg/ml” in the assay on S. pyogenes.
With `CC[C@H]1OC(=O)[C@H](C)[C@@H](O[C@H]2C[C@@](C)(OC)[C@@H](O)[C@H](C)O2)[C@H](C)[C@@H](O[C@@H]2O[C@H](C)C[C@H](N(C)C)[C@H]2O)[C@](C)(O)C[C@@H](C)CN(CCCNC(=S)NCCCc2ccccc2)[C@H](C)[C@@H](O)[C@]1(C)O` [Example 7, 9-Deoxo-9-dihydro-9a-N-[N′-(3-phenylpropyl)thiocarbamoyl-γ-aminopropyl]-9a-aza-9a-homoerithromycin A], the MIK is 16 µg/mL with E. coli ATCC 25922; 16 µg/mL in the assay on E. faecalis ATCC 29212; 2 µg/mL in the assay on H. influenzae ATCC 49247; 1 µg/mL in assay [1]; 1 µg/mL with S. aureus ATCC 13709; “≦0.125 μg/ml” in the assay with S. pneumoniae. Further, the results for the MIK in the assay with S. pyogenes M, in the assay with S. pyogenes iMLS and in the assay with S. pyogenes were 8 µg/mL, 4 µg/mL and “≦0.125 μg/ml”, respectively.
For the compound `CC[C@H]1OC(=O)[C@H](C)[C@@H](O[C@H]2C[C@@](C)(OC)[C@@H](O)[C@H](C)O2)[C@H](C)[C@@H](O[C@@H]2O[C@H](C)C[C@H](N(C)C)[C@H]2O)[C@](C)(O)C[C@@H](C)CN(CCCNC(=O)NC(C)C)[C@H](C)[C@@H](O)[C@]1(C)O` [Example 1, 9-Deoxo-9-dihydro-9a-N-(N′-isopropylcarbainoyl-γ-aminopropyl)-9a-aza-9a-homoerithromycin A], the MIK in the assay with E. coli ATCC 25922 was 16 µg/mL; with E. faecalis ATCC 29212, 32 µg/mL; with H. influenzae ATCC 49247 it was 32 µg/mL; in assay [1], 0.5 µg/mL; with S. aureus ATCC 13709 it was 2 µg/mL; in the assay with S. pneumoniae, “≦0.125 μg/ml”. The results for the MIK in the assay on S. pyogenes M, with S. pyogenes iMLS and with S. pyogenes were 32 µg/mL, 8 µg/mL and “≦0.125 μg/ml”, respectively.
Turning to `CC[C@H]1OC(=O)[C@H](C)[C@@H](O[C@H]2C[C@@](C)(OC)[C@@H](O)[C@H](C)O2)[C@H](C)[C@@H](O[C@@H]2O[C@H](C)C[C@H](N(C)C)[C@H]2O)[C@](C)(O)C[C@@H](C)CN(CCCNC(=O)Nc2cc(OC)c(OC)c(OC)c2)[C@H](C)[C@@H](O)[C@]1(C)O` [Example 11, 9-Deoxo-9-dihydro-9a-N-[N′-(3,4,5-trimethoxyphenyl)carbamoyl-γ-aminopropyl]-9a-aza-9a-homoerithromycin A], the MIK was above 64 µg/mL with E. coli ATCC 25922; above 64 µg/mL with E. faecalis ATCC 29212; 16 µg/mL in the assay with H. influenzae ATCC 49247; 16 µg/mL in [1]; 4 µg/mL in the assay on S. aureus ATCC 13709; “≦0.125 μg/ml” with S. pneumoniae. The MIK is 64 µg/mL with S. pyogenes M, 32 µg/mL with S. pyogenes iMLS and “≦0.125 μg/ml” in the assay with S. pyogenes.
As to “9-Deoxo-9-dihydro-9a-N-[N′-(β-cyanoethyl)-N′-isopropylcarbamoyl-γ-aminopropyl]-9a-aza-9a-homorithromycin A [Example 27]”, the MIK was 16 µg/mL with E. coli ATCC 25922; 32 µg/mL with E. faecalis ATCC 29212; 32 µg/mL in the assay on H. influenzae ATCC 49247; 0.5 µg/mL in [1]; 4 µg/mL with S. aureus ATCC 13709; “≦0.125 μg/ml” in the assay with S. pneumoniae. Also, the MIK in the assay with S. pyogenes M was 32 µg/mL; in the assay on S. pyogenes iMLS it was 8 µg/mL; in the assay on S. pyogenes it was “≦0.125 μg/ml”.
For the compound “9-Deoxo-9-dihydro-9a-N-[N′-(β-cyanoethyl)-N′-(2,4-dichlorophenyl)carbamoyl-γ-aminopropyl]-9a-aza-9a-homoerithromycin A [Example 39]”, the MIK was above 64 µg/mL in the assay with E. coli ATCC 25922; above 64 µg/mL in the assay on E. faecalis ATCC 29212; 16 µg/mL with H. influenzae ATCC 49247; 16 µg/mL in assay [1]; 1 µg/mL in the assay on S. aureus ATCC 13709; “≦0.125 μg/ml” in the assay with S. pneumoniae. The MIK is 64 µg/mL in the assay on S. pyogenes M, 32 µg/mL in the assay on S. pyogenes iMLS and “≦0.125 μg/ml” in the assay with S. pyogenes.
With `CC[C@H]1OC(=O)[C@H](C)[C@@H](O[C@H]2C[C@@](C)(OC)[C@@H](O)[C@H](C)O2)[C@H](C)[C@@H](O[C@@H]2O[C@H](C)C[C@H](N(C)C)[C@H]2O)[C@](C)(O)C[C@@H](C)CN(CCCNC(=O)Nc2cccc3ccccc23)[C@H](C)[C@@H](O)[C@]1(C)O` [Example 2, 9-Deoxo-9-dihydro-9a-N-[N′-(1-naphtyl)carbamoyl-γ-aminopropyl]-9a-aza-9a-homoerithromycin A], the MIK in the assay with E. coli ATCC 25922 is 8 µg/mL; in the assay with E. faecalis ATCC 29212, 4 µg/mL; in the assay on H. influenzae ATCC 49247 it was 1 µg/mL; in assay [1], 0.25 µg/mL; with S. aureus ATCC 13709, 0.5 µg/mL; with S. pneumoniae it was “≦0.125 μg/ml”. Further, the MIK was 4 µg/mL in the assay on S. pyogenes M, 2 µg/mL in the assay with S. pyogenes iMLS and “≦0.125 μg/ml” with S. pyogenes.
With `CC[C@H]1OC(=O)[C@H](C)[C@@H](O[C@H]2C[C@@](C)(OC)[C@@H](O)[C@H](C)O2)[C@H](C)[C@@H](O[C@@H]2O[C@H](C)C[C@H](N(C)C)[C@H]2O)[C@](C)(O)C[C@@H](C)CN(CCCNC(=S)Nc2cccc3ccccc23)[C@H](C)[C@@H](O)[C@]1(C)O` [Example 5], the MIK in the assay on E. coli ATCC 25922 was 8 µg/mL; with E. faecalis ATCC 29212, 4 µg/mL; in the assay on H. influenzae ATCC 49247, 2 µg/mL; in [1] it was 2 µg/mL; in the assay on S. aureus ATCC 13709 it was 2 µg/mL; in the assay with S. pneumoniae, “≦0.125 μg/ml”. Also, the MIK was 4 µg/mL with S. pyogenes M, 4 µg/mL with S. pyogenes iMLS and “≦0.125 μg/ml” with S. pyogenes.
As for “9-Deoxo-9-dihydro-9a-N-[N′-(β-cyanoethyl)-N′-(3,4,5-trimethoxyphenyl)carbamoyl-γ-aminopropyl]-9a-aza-9a-homoerithromycin A [Example 37]”, the MIK in the assay with E. coli ATCC 25922 was 16 µg/mL; with E. faecalis ATCC 29212 it was 16 µg/mL; in the assay with H. influenzae ATCC 49247, 2 µg/mL; in assay [1] it was 1 µg/mL; in the assay with S. aureus ATCC 13709, 4 µg/mL; in the assay on S. pneumoniae it was “≦0.125 μg/ml”. In addition, the values for the MIK with S. pyogenes M, in the assay with S. pyogenes iMLS and in the assay with S. pyogenes were 8 µg/mL, 47 µg/mL and “≦0.125 μg/ml”, respectively.
